Source: ChEMBL document CHEMBL5356934, “Antibacterial activities of anthraquinones: structure-activity relationships and action mechanisms” (RSC Med Chem, 2023)
Values after ≈ are worked out from the molar mass of the structure shown.

Experiments:
Bacillus cereus [1] = assay: Antibacterial activity against Bacillus cereus; format: functional
Staphylococcus aureus [2] = assay: Antibacterial activity against Staphylococcus aureus ATCC 25923 assessed as reduction in microbial growth after 24 hrs by spectrophotometric method; format: functional
Staphylococcus aureus [3] = assay: Antibacterial activity against methicillin-resistant Staphylococcus aureus ATCC 43300 assessed as reduction in bacterial growth by CLSI protocol based broth microdilution method; format: functional
Staphylococcus aureus [4] = assay: Antibacterial activity against methicillin-resistant Staphylococcus aureus CGMCC1.12483 assessed as reduction in bacterial growth by CLSI protocol based broth microdilution method; format: functional
Vibrio campbellii = assay: Antibacterial activity against Vibrio campbellii MCCC E333 assessed as cell growth inhibition measured after 24 hrs by resazurin dye based assay; format: functional
Vibrio rotiferianus = assay: Antibacterial activity against Vibrio rotiferianus MCCC E385 assessed as cell growth inhibition measured after 24 hrs by resazurin dye based assay; format: functional
Porphyromonas gingivalis = assay: Antibacterial activity against Porphyromonas gingivalis ATCC 33277 assessed as reduction in bacterial growth incubated for 24 hrs by micro-dilution method; format: functional
Escherichia coli [5] = assay: Antibacterial activity against Escherichia coli ATCC 8730 assessed as reduction in bacterial growth; format: functional
Staphylococcus aureus [6] = assay: Antibacterial activity against Staphylococcus aureus ATCC 25923 assessed as reduction in microbial growth incubated for 24 hrs by broth micro-dilution method; format: functional
Salmonella = assay: Antibacterial activity against Salmonella ATCC 12022 assessed as inhibition of bacterial growth by standard broth microdilution method; format: functional
Streptococcus mutans = assay: Antibacterial activity against Streptococcus mutans ATCC 25175 assessed as inhibition of bacterial growth incubated for 18 to 20 hrs by CLSI protocol based broth microdilution method; format: functional; conditions: time 18-20 hrs
Escherichia coli [7] = assay: Antibacterial activity against Escherichia coli assessed as reduction in bacterial growth incubated for 12 hrs by microdilution method; format: functional
Trichophyton rubrum = assay: Antifungal activity against Trichophyton rubrum assessed as fungal growth inhibition; format: functional
Aeromonas hydrophila [8] = assay: Antibacterial activity against Aeromonas hydrophila IB101; format: functional
Bacillus cereus [9] = assay: Antibacterial activity against Bacillus cereus assessed as reduction in microbial growth after 18 hrs by MTT based broth dilution method; format: functional
Proteus vulgaris = assay: Antimicrobial activity against Proteus vulgaris assessed as inhibition of bacterial growth; format: functional
[10] = system: Staphylococcus epidermidis; assay: Antibacterial activity against Staphylococcus epidermidis assessed as reduction in microbial growth; format: functional
Klebsiella aerogenes = assay: Antimicrobial activity against Enterobacter aerogenes ATCC 45102; format: functional
Staphylococcus aureus [11] = assay: Antibacterial activity against Staphylococcus aureus 4125 assessed as reduction in bacterial growth; format: functional
Escherichia coli [12] = assay: Antimicrobial activity against Escherichia coli assessed as reduction in microbial growth; format: functional
Rothia kristinae = assay: Antibacterial activity against Rothia kristinae assessed as reduction in microbial growth; format: functional
Staphylococcus aureus [13] = assay: Antibacterial activity against Staphylococcus aureus assessed as reduction in microbial growth; format: functional
Aeromonas hydrophila [14] = assay: Antibacterial activity against Aeromonas hydrophila; format: functional
Pseudomonas aeruginosa [15] = assay: Antibacterial activity against Pseudomonas aeruginosa assessed as zone of inhibition; format: functional
Escherichia coli [16] = assay: Antibacterial activity against Escherichia coli assessed as zone of inhibition; format: functional
Vibrio harveyi = assay: Antimicrobial activity against Vibrio harveyi assessed as bacterial growth inhibition; format: functional
Candida albicans = assay: Antifungal activity against Candida albicans assessed as fungal growth inhibition by broth microdilution method; format: functional
[17] = system: Mycobacterium tuberculosis; assay: Antimycobacterial activity against Mycobacterium tuberculosis H37Ra assessed as reduction in microbial growth; format: functional
Neisseria gonorrhoeae = assay: Antibacterial activity against resistant Neisseria gonorrhoeae assessed inhibition of bacterial growth; format: functional
Cryptococcus neoformans = assay: Antifungal activity against Cryptococcus neoformans assessed as reduction in microbial growth; format: functional
Epidermophyton floccosum = assay: Antifungal activity against Epidermophyton floccosum measured after 96 hrs by two fold serial dilution technique; format: functional
Pseudomonas aeruginosa [18] = assay: Antibacterial activity against Pseudomonas aeruginosa assessed as reduction in bacterial growth incubated for 24 hrs by broth microdilution method; format: functional
Haemophilus parasuis = assay: Antibacterial activity against Haemophilus parasuis clinical isolates assessed as bacterial growth inhibition measured after 16 to 24 hrs by broth microdilution assay; format: functional; conditions: Glaesserella parasuis; time 16-24 hrs
[19] = system: Mycobacterium tuberculosis; assay: Anti-mycobacterial activity against Mycobacterium tuberculosis H37Ra assessed as reduction in bacterial growth […]; format: functional
Bacillus cereus [20] = assay: Antibacterial activity against Bacillus cereus TISTR 687 incubated for 16 to 18 hrs by Mueller-Hinton broth based two-fold serial dilution method; format: functional; conditions: time 16-18 hrs
Staphylococcus aureus [21] = assay: Antibacterial activity against methicillin resistant Staphylococcus aureus ATCC 33592 incubated for 24 hrs by Mueller-Hinton broth based assay; format: functional
Bacillus sp. = assay: Antibacterial activity against Bacillus sp. assessed as inhibition of bacterial growth; format: functional; conditions: Bacillus sp. (in: firmicutes)
Bacillus subtilis = assay: Antibacterial activity against Bacillus subtilis ATCC 6051 assessed as reduction in bacterial growth incubated for 24 hrs by broth micro-dilution method; format: functional
Pseudomonas aeruginosa [22] = assay: Antibacterial activity against Pseudomonas aeruginosa TISTR 781 assessed as inhibition of bacterial growth incubated for 16 to 18 hrs by Mueller-Hinton broth based two-fold serial dilution method; format: functional; conditions: time 16-18 hrs
Pseudomonas aeruginosa [23] = assay: Antibacterial activity against Pseudomonas aeruginosa assessed as reduction in bacterial growth by broth microdilution method; format: functional
Pseudomonas aeruginosa [24] = assay: Antibacterial activity against Pseudomonas aeruginosa TISTR 781 assessed as reduction in bacterial growth by broth microdilution method; format: functional
Escherichia coli [25] = assay: Antibacterial activity against Escherichia coli ATCC 25922 assessed as bacterial growth inhibition measured after 48 hrs by resazurin assay; format: functional
Staphylococcus aureus [26] = assay: Antibiofilm activity against Staphylococcus aureus CMCC 26003 assessed as reduction in live bacteria in biofilm formation incubated for 24 hrs by crystal violet staining based analysis; format: functional
Staphylococcus aureus [27] = assay: Antibacterial activity against Staphylococcus aureus ATCC 25923 assessed as reduction in bacterial growth incubated for 24 hrs by serial dilution method; format: functional
Salmonella typhimurium = assay: Antibacterial activity against Salmonella typhimurium TISTR 780 assessed as inhibition of bacterial growth incubated for 16 to 18 hrs by Mueller-Hinton broth based two-fold serial dilution method; format: functional, Salmonella enterica subsp. enterica serovar Typhimurium; conditions: Salmonella enterica, time 16-18 hrs
Streptococcus suis = assay: Antibacterial activity against Streptococcus suis ATCC 700794 assessed as bacterial growth inhibition incubated for 24 hrs by broth micro-dilution method; format: functional
Acetylcholinesterase = Acetylcholinesterase (Homo sapiens, UniProt P22303); assay: Inhibition of Acetylcholinesterase (unknown origin)
Acetylcholinesterase, sequence (P22303 whole entry): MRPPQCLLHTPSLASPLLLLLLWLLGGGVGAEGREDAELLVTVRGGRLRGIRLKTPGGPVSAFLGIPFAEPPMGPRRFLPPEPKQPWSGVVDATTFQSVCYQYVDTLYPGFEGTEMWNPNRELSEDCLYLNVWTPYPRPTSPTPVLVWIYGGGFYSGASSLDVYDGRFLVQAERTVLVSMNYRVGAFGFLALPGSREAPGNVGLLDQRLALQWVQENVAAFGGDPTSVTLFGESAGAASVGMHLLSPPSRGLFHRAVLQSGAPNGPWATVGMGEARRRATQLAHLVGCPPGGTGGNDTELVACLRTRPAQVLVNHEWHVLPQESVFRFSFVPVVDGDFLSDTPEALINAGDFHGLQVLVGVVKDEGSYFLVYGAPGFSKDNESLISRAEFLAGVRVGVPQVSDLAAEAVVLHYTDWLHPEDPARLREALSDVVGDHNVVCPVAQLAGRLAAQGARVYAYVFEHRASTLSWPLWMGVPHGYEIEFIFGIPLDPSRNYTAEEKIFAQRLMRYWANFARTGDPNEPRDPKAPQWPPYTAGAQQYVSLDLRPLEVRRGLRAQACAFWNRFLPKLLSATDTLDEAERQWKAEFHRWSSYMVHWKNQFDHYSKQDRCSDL

## COC1=CC(=O)c2c(cc3c(c2O)CC(O)C(C)(O)C3)C1=O (stereo unspecified)
Bacillus cereus [1]
  MIC: 0.312 µM (≈ 0.0949 µg/mL)

## CN(CCC(O)COc1cccc2c(=O)c3ccc(Cl)cc3oc12)C(C)(C)C (stereo unspecified)
Staphylococcus aureus [2]
  MIC: < 20 mg/L

## COc1ccccc1CNCCC(O)COc1cccc2c(=O)c3ccccc3oc12 (stereo unspecified)
Staphylococcus aureus [2]
  MIC: < 20 mg/L

## CC1=CC2c3c(O)c(O)c4oc5cc(O)cc(O)c5c(=O)c4c3[C@H](c3cc(O)c(O)c4oc5cc(O)cc(O)c5c(=O)c34)C2C(C)(C)C1 (stereo partly specified)
Staphylococcus aureus [3]
  MIC: 3.9 mg/L (≈ 5.98 µM)
Staphylococcus aureus [4]
  MIC: 3.9 mg/L (≈ 5.98 µM)
Vibrio campbellii
  MIC: 15.6 mg/L (≈ 23.9 µM)
Vibrio rotiferianus
  MIC: 15.6 mg/L (≈ 23.9 µM)

## Cc1cccc2c(=O)c3ccc(OCC(O)CNC(C)C)cc3oc12 (stereo unspecified)
Staphylococcus aureus [2]
  MIC: < 20 mg/L

## O=C1c2cccc(O)c2C(=O)c2c(O)cc(CO)cc21 [ALOE-EMODIN]
Porphyromonas gingivalis
  MIC: 2.5 mg/L (≈ 9.25 µM)
Escherichia coli [5]
  MIC: 125 mg/L (≈ 463 µM)
Staphylococcus aureus [6]
  MIC: 4 mg/L
Salmonella
  MIC: 250 mg/L (≈ 925 µM)
Streptococcus mutans
  MIC: 6.25 mg/L (≈ 23.1 µM)

## Cc1cc(O)c2c(c1)C(=O)c1cccc(O)c1C2=O [CHRYSOPHANOL]
Escherichia coli [7]
  MIC: 125 mg/L (≈ 492 µM)
Trichophyton rubrum
  MIC: 156 mg/L (≈ 614 µM)
Aeromonas hydrophila [8]
  MIC: 200 mg/L (≈ 787 µM)
Bacillus cereus [9]
  MIC: > 250 mg/L
Proteus vulgaris
  MIC: 128 mg/L (≈ 503 µM)
[10]
  MIC: > 250 mg/L
Klebsiella aerogenes
  MIC: > 250 mg/L
Staphylococcus aureus [11]
  MIC: 90 mg/L (≈ 354 µM)
Escherichia coli [12]
  MIC: 3.13 mg/L
Rothia kristinae
  MIC: > 250 mg/L
Staphylococcus aureus [13]
  MIC: > 250 mg/L
Aeromonas hydrophila [14]
  MIC: 200 mg/L (≈ 787 µM)
Pseudomonas aeruginosa [15]
  inhibition zone (IZ): 18 mm
Escherichia coli [16]
  inhibition zone (IZ): 18 mm
Vibrio harveyi
  MIC: 1000 mg/L (≈ 3930 µM)
Candida albicans
  MIC: 50 mg/L (≈ 197 µM)
[17]
  MIC: 64 mg/L
Neisseria gonorrhoeae
  MIC: 75 mg/L (≈ 295 µM)
Cryptococcus neoformans
  MIC: 50 mg/L
Epidermophyton floccosum
  MIC: 625 mg/L (≈ 2460 µM)
Pseudomonas aeruginosa [18]
  MIC: 128 mg/L (≈ 503 µM)

## Cc1cc(O)c2c(c1)C(=O)c1cc(O)cc(O)c1C2=O [EMODIN]
Haemophilus parasuis
  MIC: 32 mg/L (≈ 118 µM)
[19]
  MIC: 0.9 mg/L (≈ 3.33 µM)
Bacillus cereus [20]
  MIC: 16 mg/L (≈ 59.2 µM)
Staphylococcus aureus [21]
  MIC: 4 mg/L (≈ 14.8 µM)
Bacillus sp.
  MIC: 0.5 mg/L (≈ 1.85 µM)
Bacillus subtilis
  MIC: 8 mg/L (≈ 29.6 µM)
Pseudomonas aeruginosa [22]
  MIC: 128 mg/L (≈ 474 µM)
Pseudomonas aeruginosa [23]
  MIC: > 128 mg/L
Staphylococcus aureus [11]
  MIC: 20 mg/L (≈ 74 µM)
Pseudomonas aeruginosa [24]
  MIC: > 128 mg/L
Escherichia coli [25]
  MIC: > 128 mg/L
Staphylococcus aureus [26]
  MIC: 0.125 mg/L (≈ 0.463 µM)
Staphylococcus aureus [27]
  MIC: 64 mg/L (≈ 237 µM)
Salmonella typhimurium
  MIC: 128 mg/L (≈ 474 µM)
Streptococcus suis
  MIC: 0.125 mg/L (≈ 0.463 µM)

## COc1cc(O)c2c(c1)C(=O)c1cc(C)cc(O)c1C2=O [PHYSCION]
Staphylococcus aureus [11]
  MIC: 90 mg/L (≈ 317 µM)

## O=C1c2ccccc2C(=O)c2c(O)c(O)cc(O)c21 [PURPURIN]
Acetylcholinesterase
  IC50: 0.3 µM
